Experimental data from the NIST ThermoML archive (doi:10.1016/j.jct.2009.03.010).
± gives the expanded uncertainty stated by the source.

Key:
[1] = Crystal; DTA
[2] = Molar enthalpy of transition or fusion; conditions: Crystal; DSC
[3] = molar heat capacity at constant pressure; conditions: 101.33 kPa, Crystal

c1cc2ccc3ccc4ccc5ccc6ccc1c1c2c3c4c5c61 [coronene]
Conditions	Molar enthalpy of transition or fusion [kcal/mol]	Normal melting temperature [°C]
[1]	–	436 ± 1.6
[2]	5.07 ± 0.359	–

molar heat capacity at constant pressure [J/K/mol], [3]
Conditions	DSC	Small sample (50 mg) DSC
295 K	–	312.97 ± 6.3
298.15 K	317.46 ± 14	317.17 ± 6.3
300 K	–	318.97 ± 6.4
310 K	–	333.99 ± 6.7
320 K	–	344.5 ± 6.9
330 K	–	355.32 ± 7.1
340 K	–	366.43 ± 7.3
350 K	–	373.94 ± 7.5
360 K	–	383.85 ± 7.7
370 K	–	394.66 ± 7.9
380 K	–	405.18 ± 8.1
410 K	–	417.19 ± 8.3
420 K	–	422.3 ± 8.4
430 K	–	435.51 ± 8.7
440 K	–	439.12 ± 8.8
450 K	–	447.82 ± 9
460 K	–	453.83 ± 9.1
470 K	–	463.44 ± 9.3
478 K	–	470.65 ± 9.4
